Assays:
[1] = system: Murine HSPCs transduced with MLL-AF9; assay: Selection of MLL-AF9 transduced HSPCs in cytokine-supplemented methylcellulose with I-BET (IC40); assay type: cell-based, mouse
From the text: Initial generation of immortalised parental cell lines was achieved through magnetic bead selection (Miltenyi Biotec) of c-kit positive cells, obtained from whole bone marrow of male and female C57BL/6 mice, and subsequent retroviral transduction with either an MSCV-MLL-AF9-IRES-YFP or an MSCV-MLL-ENL construct.
Individual vehicle-treated or resistant colonies were picked and transferred to liquid culture to generate clonal cell lines. […] Vehicle-treated clones were also continuously maintained in 0.1% DMSO and passaged in identical fashion. The parental cell line was continuously maintained with no exposure to vehicle or drug.

[2] = system: vehicle treated cells / I-BET naive bulk leukaemia cells; assay: Clonogenic, apoptosis and cell cycle assays, vehicle treated (I-BET naive) cells; assay type: cell-based, mouse
Procedure: (§1) Clonogenic potential was assessed through colony growth of derived cell lines plated in cytokine supplemented methylcellulose (Methocult M3434, Stemcell Technologies). […] Gr1−/CD11b- and Gr1+/CD11b+ fractions of resistant cell lines were plated in duplicate following FACS sorting at a cell dose of between 2×10^2 and 2×10^3 cells per plate. […] Cells were incubated at 37° C. and 5% CO2 for 7 to 10 days at which time colonies were counted.
(§2) Cell apoptosis was assessed using APC conjugated Annexin V (550475, BD Biosciences) and propidium iodide (PI) (P4864, Sigma-Aldrich) staining according to manufacturer's instructions.
(§3) For cell cycle analysis, cells were fixed overnight at −20° C. in 70% EtOH/PBS. Prior to flow cytometry analysis, cells were incubated at 37° C. for 30 minutes in PI staining solution (0.02 mg/mL PI, 0.05% v/v Triton-X in PBS, supplemented with DNase-free RNase A (19101, Qiagen) or incubated at room temperature for 10 minutes with 4′,6-diamidino-2-phenylindole (DAPI) staining solution (1 μg/ml DAPI, 0.05% v/v Triton-X in PBS).

I-BET resistant cells = assay: Clonogenic, apoptosis and cell cycle assays, I-BET resistant cells; assay type: cell-based, mouse; details: FIG. 1D-F
Procedure: as §1, §2, §3

[3] = system: L-GMPs from I-BET naive mice; assay: Clonogenic assay of sorted I-BET naive L-GMPs; assay type: cell-based, mouse; details: 1 μM I-BET; FIG. 2H
Procedure: as §1
Immunophenotype assessment for markers of committed differentiation was undertaken through staining with Alexa Fluor 700 anti-Gr-1 (108422, BioLegend) and Brilliant Violet 605 anti-CD11b (101237, BioLegend). Assessment of L-GMP populations was undertaken through staining with eFluor 660 anti-CD34 (50-0341-82, eBioscience), biotin lineage antibody cocktail (120-001-547, Miltenyi Biotec), PerCP/Cy5.5 anti-CD16/32 (101324, BioLegend), APC/Cy7 anti-CD117 (105826, BioLegend) and Pacific Blue anti-Ly-6A (122520, BioLegend) followed by secondary staining with V500 streptavidin (561419, BD Biosciences). […]

[4] = system: MLL-AF9 AML, parental cell line; assay: Syngeneic transplantation AML model, recipients of the parental cell line, survival; assay type: in vivo, C57BL/6 mice; details: I-BET 20-30 mg/kg IP; P<0.01, n=6, log-rank; FIG. 1H
Procedure: (§4) Serial syngeneic transplantation studies of drug efficacy, generation of in vivo resistance and limit dilution analyses were performed with intravenous injection of between 10 to 2.5×10^6 cells per mouse obtained from bone marrow or spleen.
(§5) Syngeneic transplantation studies were performed in C57BL/6 mice (wild type or expressing Ptprc^a). All mice were 6-10 weeks old at the time of sub-lethal irradiation (300 cGy) and intravenous cell injection. […] Mice were randomly assigned treatment groups; treatment administration was not blinded. Sample sizes were determined according to the resource equation method. Differences in Kaplan-Meier survival curves were analysed using the log-rank statistic.

[5] = system: MLL-AF9 AML, I-BET resistant cell line; assay: Syngeneic transplantation AML model, recipients of resistant cells, survival; assay type: in vivo, C57BL/6 mice; details: identical treatment strategy; P=0.877, n=6, log-rank; FIG. 1I
Procedure: as §4, §5

[6] = system: human AML patient derived xenograft; assay: Patient derived xenograft (PDX) model of AML; assay type: in vivo, NOD SCID gamma (NSG) mice; details: I-BET 10 mg/kg for 2 weeks; FIG. 2G
From the text: Immunophenotype assessment for markers of committed differentiation was undertaken through staining with Alexa Fluor 700 anti-Gr-1 (108422, BioLegend) and Brilliant Violet 605 anti-CD11b (101237, BioLegend). Assessment of L-GMP populations was undertaken through staining with eFluor 660 anti-CD34 (50-0341-82, eBioscience), biotin lineage antibody cocktail (120-001-547, Miltenyi Biotec), PerCP/Cy5.5 anti-CD16/32 (101324, BioLegend), APC/Cy7 anti-CD117 (105826, BioLegend) and Pacific Blue anti-Ly-6A (122520, BioLegend) followed by secondary staining with V500 streptavidin (561419, BD Biosciences). Assessment of leukemic LMPP and GMP populations in patient derived xenografts was undertaken through staining with APC/Cy7 anti-mouse CD45.1 (110716, Biolegend), eFluor 450 anti-mouse Ter119 (48-5921-82, eBioscience), FITC anti-human CD45 (11-9459-42, eBioscience), BV711 anti-human CD38 (563965, BD Biosciences), PE anti-human CD90 (561970, BD Biosciences), PE-Cy5 anti-human CD123 (15-1239-41, eBioscience), PerCP-Cy5.5 anti-human CD45RA (45-0458-42), biotin anti-human CD3 (555338, BD Biosciences), biotin anti-human CD19 (555411, BD Biosciences), PE-Cy7 anti-human CD33 (333946, BD Biosciences) and APC anti-human CD34 (555824, BD Biosciences) followed by secondary staining with V500 streptavidin (561419, BD Biosciences). […]

I-BET resistant clones = assay: Cell growth of I-BET resistant clones under JQ1; assay type: cell-based, mouse; details: 100 nM JQ1; FIG. 1C
Procedure: Following 72 hour incubation, resazurin was added to each well and plates were further incubated for 3 hours. Fluorescence was then read at 560 nm/590 nm on a Cytation 3 Imaging Reader (BioTek). Cell counts were performed using a haemocytometer. Determination of in vitro synergy in proliferation assays was undertaken according to the method of Zhao et al. (2014, Journal of molecular screening, 19: 817-821).

Row | SMILES | IC40 [1] [nM] | clonogenic potential ([2]; 1 μM I-BET, I-BET naive bulk leukaemia cells, FIG. 1D) | I-BET mediated suppression of clonogenic capacity, induction of apoptosis and cell cycle arrest ([2]; vehicle treated cells, FIG. 1D-F) | I-BET mediated suppression of clonogenic capacity, induction of apoptosis and cell cycle arrest (I-BET resistant cells) | L-GMPs able to survive in clonogenic assay [3] | survival [4] | survival [5] | effect on leukemic LMPP population (hCD45 expression) [6] | resistance of I-BET resistant clones to JQ1 (I-BET resistant clones)
1 | COc1cc2c(cc1-c1c(C)noc1C)ncc1[nH]c(=O)n([C@H](C)c3ccccn3)c12 [I-BET, I-BET 151] | 400 | virtually eradicates | exquisitely sensitive | impervious | 30-40% | significant survival advantage | survival advantage is abrogated | enriches for the leukemic LMPP population | 
2 | Cc1sc2c(c1C)C(c1ccc(Cl)cc1)=N[C@@H](CC(=O)OC(C)(C)C)c1nnc(C)n1-2 [JQ1] |  |  |  |  |  |  |  |  | cross-resistance
